# Molecular target: T1, human 11βHSD1 enzyme (Homo sapiens, UniProt P28845)
# T1 construct: a construct containing full-length human 11βHSD1 enzyme (in pCMVHyg); expressed in transfected cells
# Experiment: HeLa GRE4-βGal/11βHSD1 cell reporter assay (cortisone to cortisol, β-galactosidase readout)
# Type: cell-based
# Settings: HeLa GRE4-βGal/11βHSD1 cells, cortisone 1 μM, overnight incubation, absorbance at 570 nm
# Description: HeLa cells (human cervical carcinoma derived cells) were stably transfected with a construct containing four copies of the glucocorticoid response element (GRE) linked to a beta-galactosidase reporter gene (3 kb lac Z gene derived from pSV-B-galactosidase). These cells were then further stably transfected with a construct containing full-length human 11βHSD1 enzyme (in pCMVHyg) to create GRE4-βGal/11βHSD1 cells. The principal of the assay is as follows. Cortisone is freely taken up by the cells and is converted to cortisol by 11βHSD1 oxo-reductase activity and cortisol (but not cortisone) binds to and activates the glucocorticoid receptor. Activated glucocorticoid receptor then binds to the GRE and initiates transcription and translation of β-galactosidase. Enzyme activity can then be assayed with high sensitivity by colourimetric assay.
# Cells were routinely cultured in DMEM (Invitrogen, Paisley, Renfrewshire, UK) containing 10% foetal calf serum (LabTech), 1% glutamine (Invitrogen), 1% penicillin & streptomycin (Invitrogen), 0.5 mg/ml G418 (Invitrogen) & 0.5 mg/ml hygromycin (Boehringer). Assay media was phenol red free-DMEM containing 1% glutamine, 1% penicillin & streptomycin.
# Compounds (1 mM) to be tested were dissolved in dimethyl sulphoxide (DMSO) and serially diluted into assay media containing […]. […]
# A cocktail (25 μl) consisting of 10× Z-buffer (600 mM Na2HPO4, 400 mM NaH2PO4.2H2O, 100 mM KCl, 10 MM MgSO4.7H2O, 500 mM β-mercaptoethanol, pH 7.0), SDS (0.2%), chlorophenol red-β-D-galactopyranoside (5 mM, Roche Diagnostics) was added per well and plates incubated at 37° C. for 3-4 hours. β-Galactosidase activity was indicated by a yellow to red colour change (absorbance at 570 nm) measured using a Tecan Spectrafluor Ultra.
# The calculation of median inhibitory concentration (IC50) values for the inhibitors was performed using Origin 6.0 (Microcal Software, Northampton Mass. USA). Dose response curves for each inhibitor were plotted as OD units at each inhibitor concentration with relation to a maximum signal (cortisone, no compound) and IC50 values calculated. […]
# T1 sequence (P28845 whole entry): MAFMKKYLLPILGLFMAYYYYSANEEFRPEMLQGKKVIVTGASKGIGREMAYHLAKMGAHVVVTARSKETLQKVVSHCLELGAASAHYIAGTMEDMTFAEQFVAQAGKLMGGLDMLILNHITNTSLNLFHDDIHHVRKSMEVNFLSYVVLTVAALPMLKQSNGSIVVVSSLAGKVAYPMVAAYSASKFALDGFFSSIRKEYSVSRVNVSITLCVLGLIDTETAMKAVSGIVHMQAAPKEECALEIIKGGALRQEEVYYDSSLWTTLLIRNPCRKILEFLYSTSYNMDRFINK
row,Compound,IC50
1,"Cc1ccc(C(=O)Cc2ccsc2)cc1 [Example 3, (Thien-3-ylmethyl)-(4-methylphenyl)-ketone]",76.8 nM
2,"O=C(CS(=O)(=O)N1CCCC1)c1ccc(F)cc1 [Example 79, (4-Fluorophenyl)-(pyrrolidin-1-ylsulphonylmethyl)-ketone]",93.5 nM
3,"CC(=O)Nc1ccc(OCC(=O)c2ccc(Cl)cc2)cc1 [Example 155, (4-Chlorophenyl)-(4-acetylaminophenoxymethyl)-ketone]",153 nM

# Test system: not given
# Experiment: not given
# Settings: not given
row,Compound,melting point
1,Cc1ccc(CC(C(=O)c2ccccc2)N2CCCCC2)cc1 (centres unmarked),71 to 72 °C
2,"O=C(Cc1ccc(Cl)c(Cl)c1)c1ccc(Cl)cc1 [Example 4, (4-Chlorophenyl)-(3,4-dichlorophenylmethyl)-ketone]",99 to 103 °C
3,"O=C(Cn1cnc2ccccc21)c1ccc(Cl)cc1Cl [Example 7, (Benzimidazol-1-ylmethyl)-(2,4-dichlorophenyl)-ketone]",130 to 132 °C
4,"O=C(c1cccnc1)C(Cc1ccc(F)cc1)c1ccccc1 (stereo not drawn) [Example 10, [α-(4-Fluorobenzyl)benzyl]-(pyrid-3-yl)-ketone]",100 to 102 °C
5,"O=C(c1ccccc1)C(Cc1ccc(Cl)cc1)c1cccnn1 (centres unmarked) [Example 13, [2-(4-Chlorophenyl)-1-(pyridazin-3yl)ethyl]-(phenyl)-ketone]",140 to 142 °C
6,"O=C(CCc1ccc(F)cc1)c1ccc(C(F)(F)F)cc1 [Example 19, (4-Fluorophenethyl)-(4-trifluoromethylphenyl)-ketone]",66 to 67 °C
7,"O=C(CS(=O)(=O)c1ccccc1)c1ccccn1 [Example 100, (Phenylsulphonylmethyl)-(pyrid-2-yl)-ketone]",101 to 103 °C
8,"O=C(Cc1ccc(Br)cc1)c1ccc(Cl)cc1 [RE 3, (4-Bromobenzyl)-(4-chlorophenyl)-ketone]",125 to 126 °C
9,"O=C(Cc1ccc(Cl)cc1)c1ccc(Br)cc1 [Reference Example 3, (4-Bromophenyl)-(4-chlorobenzyl)-ketone]",128 to 129 °C
10,"COc1ccc(C(=O)Cc2ccccc2)cc1 [Reference Example 5, (4-Methoxyphenyl)-(benzyl)-ketone]",68 to 69 °C
11,"Cc1ccc(C(=O)Cc2ccccc2)cc1 [Reference Example 11, (Benzyl)-(4-methylphenyl)-ketone]",107 to 111 °C
12,"O=C(c1ccc(Cl)cc1)C(Cn1cncn1)c1ccc(Cl)cc1 (stereo not drawn) [Reference Example 16, (4-Chlorophenyl)-[α-(1,2,4-triazol-1-ylmethyl)-4-chlorobenzyl]-ketone]",126 to 128 °C
13,"Cc1ccc(C(=O)CCc2ccc(N3CCN(c4ccncc4)CC3)cc2)cc1 [Reference Example 55, {4-[1-(Pyrid-4-yl)piperazin-4-yl]phenethyl}-(4-methylphenyl)-ketone]",114 to 115 °C

# Test system: Pancreatic islets
# Experiment: not given
# Settings: pancreatic islets (Davani B et al. 2000); cited from earlier work
row,Compound,effects of 11-dehydocorticosterone on insulin release
1,CC1(C)[C@@H](OC(=O)CCC(=O)O)CC[C@]2(C)[C@H]3C(=O)C=C4[C@@H]5C[C@@](C)(C(=O)O)CC[C@]5(C)CC[C@@]4(C)[C@]3(C)CC[C@@H]12 [carbenoxolone],can inhibit the effects of 11-dehydocorticosterone on insulin release

# — patent US20050272036A1, “Ketones” (priority 2002, published 2005)
